Experiments:
[1] = Microsome clearance assay, human; conditions: microsomes
Method: (§1) Incubations at a test compound of 1 mM in microsomes (0.5 mg/mL) plus cofactor NADPH are performed in 96 well plates at 37° C. on a TECAN (Tecan Group Ltd, Switzerland) automated liquid handling system. The final concentration of the test compound in the incubation is 1 microM. After a 10 minutes preincubation step of the test compound with the microsomes, the enzymatic reaction is started by the addition of cofactors. At 1, 3, 6, 9, 15, 25, 35 and 45 minutes, aliquots of the incubations are removed and quenched with 1:3 (v/v) acetonitrile containing internal standards. Samples are then cooled and centrifuged before analysis of the supernatant by LC-MS/MS.

[2] = Microsome clearance assay, mouse; conditions: microsomes
Method: as §1

[3] = target: human GPR17 short isoform (Homo sapiens (Human), UniProt Q13304); test: GPR17 cAMP assay (hGPR17 cAMP, antagonist mode against EC80 of MDL29,951); type: cell-based; conditions: CHO-K1 cells stably expressing human GPR17 short isoform; EC80 of agonist MDL29,951; forskolin 15 μM
How it was run: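 CHO-K1 cells stably expressing untagged human GPR17 short isoform, 10,000/well in HBSS/10 mM HEPES/0.1% BSA pH 7.4. Compounds added with EC80 MDL29,951 and 0.5 mM IBMX, then 15 μM forskolin 5 min later, 30 min at room temperature; cAMP by TR-FRET, normalized to reference antagonist, sigmoidal fit.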

[4] = Microsome clearance assay, rat; conditions: microsomes
Method: as §1

[5] = microsomes, 1 µM
Method: as §1

[6] = microsomes, 1 µM; remark: listed apart in the source
Method: as §1

[7] = microsomes, 1 µM; remark: listed apart in the source
Method: as §1

human GPR17 short isoform, sequence (Q13304 29-367): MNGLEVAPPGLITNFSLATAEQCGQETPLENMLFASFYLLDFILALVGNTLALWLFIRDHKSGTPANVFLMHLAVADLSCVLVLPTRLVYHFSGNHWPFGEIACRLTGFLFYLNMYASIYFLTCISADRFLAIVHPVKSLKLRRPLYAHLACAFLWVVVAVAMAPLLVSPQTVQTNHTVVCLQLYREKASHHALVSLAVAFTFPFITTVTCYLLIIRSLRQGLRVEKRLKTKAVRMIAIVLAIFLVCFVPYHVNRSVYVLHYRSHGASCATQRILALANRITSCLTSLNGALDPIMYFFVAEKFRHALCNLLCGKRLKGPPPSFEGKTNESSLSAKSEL

microsomal CLint at 1 µM [1] | microsomal CLint at 1 µM [2] | IC50 [3] | microsomal CLint at 1 µM [4] | Microsomal Clearance mouse [5] | Microsomal Clearance rat [6] | Microsomal Clearance human [7] | Molecule
121 µL/min/mg | 77 µL/min/mg |  | 357 µL/min/mg |  |  |  | COc1nc(NS(=O)(=O)c2c[nH]c3cc(Cl)ccc23)c(F)cc1OCCF [RE-A, 6-chloro-N-[3-fluoro-5-(2-fluoroethoxy)-6-methoxy-2-pyridyl]-1H-indole-3-sulfonamide, reference compound]
11 µL/min/mg | 26 µL/min/mg |  | 65 µL/min/mg |  |  |  | COc1nc(NS(=O)(=O)c2c[nH]c3c(F)c(Cl)ccc23)c(F)cc1OCC(F)F [RE-B, reference compound]
35 µL/min/mg | 81 µL/min/mg |  | 286 µL/min/mg |  |  |  | COc1nc(NS(=O)(=O)c2c[nH]c3cc(Cl)ccc23)c(F)cc1CC(F)F [RE-C, 6-chloro-N-[5-(2,2-difluoroethyl)-3-fluoro-6-methoxy-2-pyridyl]-1H-indole-3-sulfonamide, reference compound]
103 µL/min/mg | 121 µL/min/mg |  | 869 µL/min/mg |  |  |  | COc1nc(NS(=O)(=O)c2c[nH]c3cc(Cl)ccc23)c(F)cc1CCC#N [RE-D, 6-chloro-N-[5-(2-cyanoethyl)-3-fluoro-6-methoxy-2-pyridyl]-1H-indole-3-sulfonamide, reference compound]
 |  |  |  | 129 μL/min/mg protein | 166 μL/min/mg protein | 29 μL/min/mg protein | N-(4-bromo-2-fluoro-5-methoxy-phenyl)-6-chloro-1H-indole-3-sulfonamide [RE-F]

The next lines start with the molecule.

Molecule | microsomal CLint at 1 µM [1] | microsomal CLint at 1 µM [2] | IC50 [3] | microsomal CLint at 1 µM [4] | Microsomal Clearance mouse [5] | Microsomal Clearance rat [6] | Microsomal Clearance human [7]
COc1nc(NS(=O)(=O)c2c[nH]c3cc(Cl)ccc23)ncc1OCCF [Example 1, 6-chloro-N-[5-(2-fluoroethoxy)-4-methoxy-pyrimidin-2-yl]-1H-indole-3-sulfonamide] | 16 µL/min/mg | 10 µL/min/mg | 69 nM | 29 µL/min/mg |  |  | 
COc1nc(NS(=O)(=O)c2c[nH]c3cc(Cl)ccc23)ncc1Br [Example 22, N-(5-bromo-4-methoxy-pyrimidin-2-yl)-6-chloro-1H-indole-3-sulfonamide] | 10 µL/min/mg | 10 µL/min/mg | 515 nM | 10 µL/min/mg |  |  | 
COc1nc(NS(=O)(=O)c2c[nH]c3cc(Cl)ccc23)ncc1CC(F)F [Example 47, 6-chloro-N-[5-(2,2-difluoroethyl)-4-methoxy-pyrimidin-2-yl]-1H-indole-3-sulfonamide] | 10 µL/min/mg | 10 µL/min/mg | 19 nM | 110 µL/min/mg |  |  | 
COc1nc(NS(=O)(=O)c2c[nH]c3c(F)c(Cl)ccc23)ncc1OCC(F)F [Example 123, 6-chloro-N-[5-(2,2-difluoroethoxy)-4-methoxy-pyrimidin-2-yl]-7-fluoro-1H-indole-3-sulfonamide] | 10 µL/min/mg | 10 µL/min/mg | 91 nM | 10 µL/min/mg |  |  | 
COc1nc(NS(=O)(=O)c2c[nH]c3cc(Cl)ccc23)ncc1CCC#N [Example 179, 6-chloro-N-[5-(2-cyanoethyl)-4-methoxy-pyrimidin-2-yl]-1H-indole-3-sulfonamide] | 10 µL/min/mg | 10 µL/min/mg | 31 nM | 33 µL/min/mg |  |  | 
COc1nc(NS(=O)(=O)c2c[nH]c3nc(Cl)ccc23)nc(OC)c1CC(F)CF (centres unmarked) [Example 289, 6-Chloro-N-[5-(2,3-Difluoropropyl)-4,6-Dimethoxy-Pyrimidin-2-Yl]-1H-Pyrrolo[2,3-b]Pyridine-3-Sulfonamide] |  |  | 69 nM |  |  |  | 
COc1nc(NS(=O)(=O)c2c[nH]c3c2ccc2scnc23)ncc1CC(F)F [Example 290, N-[5-(2,2-Difluoroethyl)-4-Methoxy-Pyrimidin-2-Yl]-8H-Pyrrolo[2,3-e][1.3]Benzothiazole-6-Sulfonamide] |  |  | 405 nM |  |  |  | 
COC(=O)c1c(C)ccc2c(S(=O)(=O)Nc3ncc(CC(F)F)c(OC)n3)c[nH]c12 [Example 291, 3-[[5-(2,2-Difluoroethyl)-4-Methoxy-Pyrimidin-2-Yl]Sulfamoyl]-6-Methyl-1H-Indole-7-Carboxylic Acid Methyl Ester] |  |  | 842 nM |  |  |  | 
COc1nc(NS(=O)(=O)c2c[nH]c3c(CO)c(C)ccc23)ncc1CC(F)F [Example 292, N-[5-(2,2-Difluoroethyl)-4-Methoxy-Pyrimidin-2-Yl]-6-Methyl-7-Methylol-1H-Indole-3-Sulfonamide] |  |  | 433 nM |  |  |  | 
COc1nc(NS(=O)(=O)c2c[nH]c3c4c(ccc23)CCN(C)C4=O)ncc1OCCF [Example 293, N-[5-(2-Fluoroethoxy)-4-Methoxy-Pyrimidin-2-Yl]-9-Keto-8-Methyl-6,7-Dihydro-1H-Pyrrol[3,2-h]Isoquinoline-3-Sulfonamide] |  |  | 240 nM |  |  |  | 
COc1nc(NS(=O)(=O)c2c[nH]c3c(OCC#N)c(Cl)ccc23)nc(OC)c1CC(F)F [Example 294, 6-Chloro-7-(Cyanomethoxy)-N-[5-(2,2-Difluoroethyl)-4,6-Dimethoxy-Pyrimidin-2-Yl]-1H-Indole-3-Sulfonamide] |  |  | 24 nM |  |  |  | 
